# pIC50: −log10 of the molar value.
# What was measured:
# T98G [1] = assay: Cytotoxicity against human T98G cells assessed as growth inhibition at 50 uM by colorimetric sulphorhodamine B assay; assay type: functional; settings: read-out: GI
# MCF7 [2] = assay: Cytotoxicity against human MCF7 cells assessed as growth inhibition at 50 uM by colorimetric sulphorhodamine B assay; assay type: functional; settings: read-out: GI
# A549 [3] = assay: Cytotoxicity against human A549 cells assessed as growth inhibition at 50 uM by colorimetric sulphorhodamine B assay; assay type: functional; settings: read-out: GI
# HCT-116 [4] = assay: Cytotoxicity against human HCT116 cells assessed as growth inhibition at 50 uM by colorimetric sulphorhodamine B assay; assay type: functional; settings: read-out: GI
# PC-3 [5] = assay: Cytotoxicity against human PC3 cells assessed as growth inhibition at 50 uM by colorimetric sulphorhodamine B assay; assay type: functional; settings: read-out: GI
# A549 [6] = assay: Cytotoxicity against human A549 cells assessed as growth inhibition by colorimetric sulphorhodamine B assay; assay type: functional, cell-based
# MCF7 [7] = assay: Cytotoxicity against human MCF7 cells assessed as growth inhibition by colorimetric sulphorhodamine B assay; assay type: functional, cell-based
# PC-3 [8] = assay: Cytotoxicity against human PC3 cells assessed as growth inhibition by colorimetric sulphorhodamine B assay; assay type: functional, cell-based
# HCT-116 [9] = assay: Cytotoxicity against human HCT116 cells assessed as growth inhibition by colorimetric sulphorhodamine B assay; assay type: functional, cell-based
# T98G [10] = assay: Cytotoxicity against human T98G cells assessed as growth inhibition by colorimetric sulphorhodamine B assay; assay type: functional, cell-based
SMILES,inhibition of growth at 50 µM (T98G [1]),inhibition of growth at 50 µM (MCF7 [2]),inhibition of growth at 50 µM (A549 [3]),inhibition of growth at 50 µM (HCT-116 [4]),inhibition of growth at 50 µM (PC-3 [5]),pIC50 (A549 [6]),pIC50 (MCF7 [7]),pIC50 (PC-3 [8]),pIC50 (HCT-116 [9]),pIC50 (T98G [10])
COc1ccc(-n2cc(CNC[C@@H]3C(=O)O[C@H]4[C@H]3CCC(C)=C3C[C@H]5O[C@@]5(C)[C@@H]34)nn2)cc1,0%,0%,20%,0%,0%,–,–,–,–,–
CC1=C2C[C@H]3O[C@@]3(C)[C@@H]2[C@H]2OC(=O)[C@@H](CNCc3cn(-c4ccccc4[N+](=O)[O-])nn3)[C@@H]2CC1,0%,0%,17%,0%,0%,–,–,–,–,–
CC1=C2C[C@H]3O[C@@]3(C)[C@@H]2[C@H]2OC(=O)[C@@H](CNCc3cn(-c4cccc([N+](=O)[O-])c4)nn3)[C@@H]2CC1,0%,0%,0%,0%,0%,–,–,–,–,–
CC1=C2C[C@H]3O[C@@]3(C)[C@@H]2[C@H]2OC(=O)[C@@H](CNCc3cn(-c4ccc([N+](=O)[O-])cc4)nn3)[C@@H]2CC1,0%,0%,26%,0%,0%,–,–,–,–,–
CC1=C2C[C@H]3O[C@@]3(C)[C@@H]2[C@H]2OC(=O)[C@@H](CNCc3cn(-c4ccccc4C#N)nn3)[C@@H]2CC1,42%,12%,46%,20%,22%,–,–,–,–,–
CC1=C2C[C@H]3O[C@@]3(C)[C@@H]2[C@H]2OC(=O)[C@@H](CNCc3cn(-c4cccc(C#N)c4)nn3)[C@@H]2CC1,0%,0%,10%,0%,0%,–,–,–,–,–
CC1=C2C[C@H]3O[C@@]3(C)[C@@H]2[C@H]2OC(=O)[C@@H](CNCc3cn(-c4ccc(C#N)cc4)nn3)[C@@H]2CC1,0%,0%,0%,0%,0%,–,–,–,–,–
CC1=C2C[C@H]3O[C@@]3(C)[C@@H]2[C@H]2OC(=O)[C@@H](CNCc3cn(-c4ccc(F)cc4F)nn3)[C@@H]2CC1,12%,29%,19%,0%,21%,–,–,–,–,–
CC1=C2C[C@H]3O[C@@]3(C)[C@@H]2[C@H]2OC(=O)[C@@H](CNCc3cn(-c4cccc(CO)c4)nn3)[C@@H]2CC1,0%,13%,47%,11%,0%,–,–,–,–,–
CC1=C2C[C@H]3O[C@@]3(C)[C@@H]2[C@H]2OC(=O)[C@@H](CNCc3cn(-c4ccc(C)c(C)c4)nn3)[C@@H]2CC1,99%,84%,73%,49%,46%,4.96,5.07,4.42,4.41,4.92
CC1=C2C[C@H]3O[C@@]3(C)[C@@H]2[C@H]2OC(=O)[C@@H](CNCc3cn(-c4cc(Cl)c(Cl)cc4Cl)nn3)[C@@H]2CC1,77%,81%,91%,74%,73%,4.68,4.92,4.96,4.74,4.77
CC1=C2C[C@H]3O[C@@]3(C)[C@@H]2[C@H]2OC(=O)[C@@H](CNCc3cn(-c4ccccc4)nn3)[C@@H]2CC1,73%,77%,77%,58%,56%,4.62,4.68,4.27,4.43,4.68
CC1=C2C[C@H]3O[C@@]3(C)[C@@H]2[C@H]2OC(=O)[C@@H](CNCc3cn(-c4cccc5ccccc45)nn3)[C@@H]2CC1,32%,0%,21%,48%,8%,–,–,–,–,–
CC1=C2C[C@H]3O[C@@]3(C)[C@@H]2[C@H]2OC(=O)[C@@H](CNCc3cn(-c4ccccc4Cl)nn3)[C@@H]2CC1,37%,12%,32%,6%,28%,–,–,–,–,–
CC1=C2C[C@H]3O[C@@]3(C)[C@@H]2[C@H]2OC(=O)[C@@H](CNCc3cn(-c4ccccc4Br)nn3)[C@@H]2CC1,17%,22%,68%,79%,0%,4.62,–,–,4.59,–
CC1=C2C[C@H]3O[C@@]3(C)[C@@H]2[C@H]2OC(=O)[C@@H](CNCc3cn(-c4ccc(Br)cc4)nn3)[C@@H]2CC1,58%,79%,74%,72%,28%,4.41,4.49,–,4.46,4.28
COc1ccccc1-n1cc(CNC[C@@H]2C(=O)O[C@H]3[C@H]2CCC(C)=C2C[C@H]4O[C@@]4(C)[C@@H]23)nn1,34%,0%,21%,38%,40%,–,–,–,–,–
COc1cccc(-n2cc(CNC[C@@H]3C(=O)O[C@H]4[C@H]3CCC(C)=C3C[C@H]5O[C@@]5(C)[C@@H]34)nn2)c1,0%,6%,8%,0%,0%,–,–,–,–,–
C=C1C(=O)O[C@H]2[C@H]1CCC(C)=C1C[C@H]3O[C@@]3(C)[C@@H]12 [LUDARTIN],97%,100%,97%,97%,97%,–,6.30,–,–,5.20

# Reference: ChEMBL document CHEMBL3112404, “Click chemistry inspired facile synthesis and bioevaluation of novel triazolyl analogs of Ludartin” (Bioorg Med Chem Lett, 2014)
